The source of these data is patent US10479786B2, “Protein kinase inhibitors” (Princeton Drug Discovery Inc, priority 2016, dated 2019).

Data set [1] can be described thus: Pharmacokinetics in Sprague-Dawley rats, 2-in-1 dosing. Particulars: rat; for V: intravenous 1 mg/kg. It counts as in vivo. On the procedure: Sprague-Dawley rats (approximate weight 275-300 g, N=3) were dosed intravenously at 5 mL/kg and orally at 10 mL/kg with the above dosing solutions. Blood samples were collected into tubes containing EDTA as the anticoagulant at 0, 0.25 (intravenous only), 0.5, 1, 2, 4, 8, 10, and 24 h post-dosing, and plasma samples were prepared by centrifugation. The plasma samples were mixed with 3× volumes of acetonitrile containing 100 nM reserpine as the internal standard, and centrifuged at 4000 RPM for 15 min. The supernatants were injected for LC/MS analysis which were carried out on a AB Sciex 4000 Q Trap LC/MS/MS system coupled with Shimadzu Prominence UFLCXR 20 series (including a CBM-20A controller, two LC-20ADXR solvent delivery units, SIL-20AC HT autosampler, CTO-20A column oven, and a SPD-20A UV detector). The samples were separated on a Phenomenex Columbus column (C18, 4 μm, 50×2 mm) eluted with two solvent systems: 2 mM ammonium acetate in water containing 0.1% formic acid (A) and methanol (B) at a linear gradient starting with 25% B. Electrospray ionization in positive mode was used to acquire LC/MS/MS data.

The next data set deals with T1, ARG (Homo sapiens, UniProt P42684).
T1 construct: purchased Carna Biosciences, Inc
T1 sequence (P42684 whole entry): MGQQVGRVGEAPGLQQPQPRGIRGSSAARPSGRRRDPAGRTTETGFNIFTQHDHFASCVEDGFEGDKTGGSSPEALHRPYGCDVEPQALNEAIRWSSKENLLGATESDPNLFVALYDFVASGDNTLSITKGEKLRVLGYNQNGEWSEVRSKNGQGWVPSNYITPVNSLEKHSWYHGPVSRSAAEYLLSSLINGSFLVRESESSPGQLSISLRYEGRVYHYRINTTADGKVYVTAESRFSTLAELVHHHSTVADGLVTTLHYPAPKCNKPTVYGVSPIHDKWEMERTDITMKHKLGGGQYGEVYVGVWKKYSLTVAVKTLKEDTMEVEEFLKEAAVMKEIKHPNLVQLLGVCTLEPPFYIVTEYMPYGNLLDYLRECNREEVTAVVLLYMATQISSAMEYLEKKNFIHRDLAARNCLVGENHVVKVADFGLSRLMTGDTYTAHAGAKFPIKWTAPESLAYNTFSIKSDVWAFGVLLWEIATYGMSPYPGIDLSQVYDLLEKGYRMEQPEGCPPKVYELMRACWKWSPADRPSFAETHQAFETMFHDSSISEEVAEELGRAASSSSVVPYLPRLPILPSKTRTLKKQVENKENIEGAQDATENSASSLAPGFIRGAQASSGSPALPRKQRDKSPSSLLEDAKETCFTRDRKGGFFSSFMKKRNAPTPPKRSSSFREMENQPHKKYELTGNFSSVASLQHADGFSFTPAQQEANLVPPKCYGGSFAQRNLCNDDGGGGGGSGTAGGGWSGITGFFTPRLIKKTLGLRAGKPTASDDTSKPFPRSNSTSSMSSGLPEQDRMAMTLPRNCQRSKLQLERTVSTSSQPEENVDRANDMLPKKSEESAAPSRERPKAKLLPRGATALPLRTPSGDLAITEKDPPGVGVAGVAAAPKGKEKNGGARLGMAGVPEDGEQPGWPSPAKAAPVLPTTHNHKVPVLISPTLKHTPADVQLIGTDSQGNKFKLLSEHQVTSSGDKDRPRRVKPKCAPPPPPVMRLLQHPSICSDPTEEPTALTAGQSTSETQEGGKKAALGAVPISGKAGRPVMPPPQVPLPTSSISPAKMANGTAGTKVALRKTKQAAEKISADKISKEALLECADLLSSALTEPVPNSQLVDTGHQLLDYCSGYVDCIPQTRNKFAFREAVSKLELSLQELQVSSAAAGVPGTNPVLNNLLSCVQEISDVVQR
The data set is described as follows: Off-chip Mobility Shift Assay, kinase inhibition. It counts as biochemical.

The target in a further data set is T2, PDGFRα (Homo sapiens, UniProt P16234).
T2 construct: purchased Carna Biosciences, Inc
T2 sequence (P16234 24-1089): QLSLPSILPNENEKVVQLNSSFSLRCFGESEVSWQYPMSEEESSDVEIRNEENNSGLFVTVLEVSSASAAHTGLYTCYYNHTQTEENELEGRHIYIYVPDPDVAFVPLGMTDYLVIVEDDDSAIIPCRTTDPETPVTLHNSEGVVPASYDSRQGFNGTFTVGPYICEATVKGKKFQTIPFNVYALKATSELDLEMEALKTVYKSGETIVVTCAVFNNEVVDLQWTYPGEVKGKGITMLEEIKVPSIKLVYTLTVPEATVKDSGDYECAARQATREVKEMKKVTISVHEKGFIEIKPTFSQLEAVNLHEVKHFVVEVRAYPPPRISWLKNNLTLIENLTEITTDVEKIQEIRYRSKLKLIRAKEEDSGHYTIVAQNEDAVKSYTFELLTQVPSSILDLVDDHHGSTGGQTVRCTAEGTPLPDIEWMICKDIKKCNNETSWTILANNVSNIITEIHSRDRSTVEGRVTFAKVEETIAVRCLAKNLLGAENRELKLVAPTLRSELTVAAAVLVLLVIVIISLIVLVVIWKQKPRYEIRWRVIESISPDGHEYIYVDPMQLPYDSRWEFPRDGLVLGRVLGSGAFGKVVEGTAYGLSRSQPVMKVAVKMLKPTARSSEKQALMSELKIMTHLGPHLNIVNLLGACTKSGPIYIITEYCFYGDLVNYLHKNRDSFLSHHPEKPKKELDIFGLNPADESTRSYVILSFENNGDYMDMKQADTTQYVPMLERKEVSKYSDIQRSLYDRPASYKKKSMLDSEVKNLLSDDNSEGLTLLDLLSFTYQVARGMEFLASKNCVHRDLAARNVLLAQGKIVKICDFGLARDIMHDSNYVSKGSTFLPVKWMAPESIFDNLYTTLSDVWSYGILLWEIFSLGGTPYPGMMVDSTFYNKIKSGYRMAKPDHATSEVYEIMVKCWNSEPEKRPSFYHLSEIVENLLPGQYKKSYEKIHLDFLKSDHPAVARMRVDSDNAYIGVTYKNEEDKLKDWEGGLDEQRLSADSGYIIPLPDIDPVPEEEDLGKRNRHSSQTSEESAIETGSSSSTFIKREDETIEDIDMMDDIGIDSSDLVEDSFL
Briefly: Off-chip Mobility Shift Assay, kinase inhibition. Type of data set: biochemical.

The next data set concerns the target T3, PDGFRβ (Homo sapiens, UniProt P09619).
T3 construct: purchased Carna Biosciences, Inc
The data set is described as follows: Off-chip Mobility Shift Assay, kinase inhibition. Type of data set: biochemical.

A further data set addresses T4, FGR (Homo sapiens, UniProt P09769).
T4 construct: purchased Carna Biosciences, Inc
Briefly: Off-chip Mobility Shift Assay, kinase inhibition. Type of data set: biochemical.

Another data set deals with T5, DDR2 (Homo sapiens, UniProt Q16832).
T5 construct: purchased Carna Biosciences, Inc
T5 sequence (Q16832 22-855): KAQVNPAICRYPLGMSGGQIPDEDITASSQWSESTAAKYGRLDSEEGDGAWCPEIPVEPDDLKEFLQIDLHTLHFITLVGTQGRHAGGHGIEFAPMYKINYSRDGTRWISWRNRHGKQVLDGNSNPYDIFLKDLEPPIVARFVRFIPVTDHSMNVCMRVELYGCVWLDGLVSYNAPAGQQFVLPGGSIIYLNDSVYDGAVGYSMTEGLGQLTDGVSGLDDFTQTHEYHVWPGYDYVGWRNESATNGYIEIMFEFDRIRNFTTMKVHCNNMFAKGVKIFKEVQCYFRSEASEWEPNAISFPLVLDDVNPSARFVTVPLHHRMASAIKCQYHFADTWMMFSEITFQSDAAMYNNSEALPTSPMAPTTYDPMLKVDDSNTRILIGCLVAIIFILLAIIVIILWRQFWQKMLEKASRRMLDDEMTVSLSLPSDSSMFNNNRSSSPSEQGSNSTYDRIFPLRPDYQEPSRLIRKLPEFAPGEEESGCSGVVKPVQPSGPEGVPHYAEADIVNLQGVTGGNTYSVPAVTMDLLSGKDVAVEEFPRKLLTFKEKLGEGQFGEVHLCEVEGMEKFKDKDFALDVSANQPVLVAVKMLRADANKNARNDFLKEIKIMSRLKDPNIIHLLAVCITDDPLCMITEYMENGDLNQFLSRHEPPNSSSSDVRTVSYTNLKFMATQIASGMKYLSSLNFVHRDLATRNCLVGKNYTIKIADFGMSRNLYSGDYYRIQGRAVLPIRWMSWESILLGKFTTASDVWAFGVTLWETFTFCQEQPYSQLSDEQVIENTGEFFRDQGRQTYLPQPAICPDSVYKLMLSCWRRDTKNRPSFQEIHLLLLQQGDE
Briefly: Off-chip Mobility Shift Assay, kinase inhibition. Type of data set: biochemical.

For another data set, the target named is T6, HCK (Homo sapiens, UniProt P08631).
T6 construct: purchased Carna Biosciences, Inc
T6 sequence (P08631 whole entry): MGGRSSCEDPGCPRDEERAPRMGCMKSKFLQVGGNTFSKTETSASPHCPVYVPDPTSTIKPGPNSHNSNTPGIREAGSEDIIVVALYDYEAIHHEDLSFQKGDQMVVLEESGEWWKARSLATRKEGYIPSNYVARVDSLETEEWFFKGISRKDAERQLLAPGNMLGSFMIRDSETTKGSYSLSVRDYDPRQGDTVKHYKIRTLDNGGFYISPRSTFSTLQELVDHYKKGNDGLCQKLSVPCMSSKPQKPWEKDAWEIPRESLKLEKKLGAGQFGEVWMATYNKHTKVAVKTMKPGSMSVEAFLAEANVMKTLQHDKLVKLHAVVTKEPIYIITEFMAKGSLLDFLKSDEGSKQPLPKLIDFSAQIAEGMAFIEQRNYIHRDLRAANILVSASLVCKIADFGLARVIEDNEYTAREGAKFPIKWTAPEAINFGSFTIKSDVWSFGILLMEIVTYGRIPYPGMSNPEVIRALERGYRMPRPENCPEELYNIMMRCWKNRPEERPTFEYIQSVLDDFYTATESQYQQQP
Briefly: Off-chip Mobility Shift Assay, kinase inhibition. Type of data set: biochemical.

The next data set has as its target T7, LYNa (Homo sapiens, UniProt P07948).
T7 construct: purchased Carna Biosciences, Inc
The data set is described as follows: Off-chip Mobility Shift Assay, kinase inhibition. Type of data set: biochemical.

The test system of data set [2] is battery of selected protein kinases. The data set is described as follows: In vitro screen of a battery of selected protein kinases (summary statement). It counts as biochemical. Conditions: BTK, BMX, ABL, ABL(E255K), SRC, ACK, ARG, BLK, DDR2, EPHA, FGR, FMS, FRK, FYN, HCK, LCK, LYN, PDGFRα, PDGFRβ, YES, PIK3CA/PIK3R1, among others.
For the next data set, the system named is Mino. Briefly: Cell inhibition assay (PrestoBlue, 48 h). It counts as cell-based. Conditions: Homo sapiens, Mino cells, read-out: IC50, inhibition of growth.
The subject of the next data set is SU-DHL-4. Briefly: Cell inhibition assay (PrestoBlue, 48 h). Conditions: Homo sapiens, SU-DHL-4, 48 h, SU-DHL-4 diffuse large B-cell lymphoma cells, read-out: IC50, inhibition of growth. Type of data set: cell-based.
[3] abbreviates: Table 2, co-dosed with compound IV.
[4] abbreviates: Table 3, co-dosed with compound X.

Where only a bound is given, the exact number is not on record here.

The term inhibition denotes the relative decrease from the control value, in per cent. As usually defined, the IC50 is the concentration needed to halve the response being measured.

T4 sequence (P09769 whole entry): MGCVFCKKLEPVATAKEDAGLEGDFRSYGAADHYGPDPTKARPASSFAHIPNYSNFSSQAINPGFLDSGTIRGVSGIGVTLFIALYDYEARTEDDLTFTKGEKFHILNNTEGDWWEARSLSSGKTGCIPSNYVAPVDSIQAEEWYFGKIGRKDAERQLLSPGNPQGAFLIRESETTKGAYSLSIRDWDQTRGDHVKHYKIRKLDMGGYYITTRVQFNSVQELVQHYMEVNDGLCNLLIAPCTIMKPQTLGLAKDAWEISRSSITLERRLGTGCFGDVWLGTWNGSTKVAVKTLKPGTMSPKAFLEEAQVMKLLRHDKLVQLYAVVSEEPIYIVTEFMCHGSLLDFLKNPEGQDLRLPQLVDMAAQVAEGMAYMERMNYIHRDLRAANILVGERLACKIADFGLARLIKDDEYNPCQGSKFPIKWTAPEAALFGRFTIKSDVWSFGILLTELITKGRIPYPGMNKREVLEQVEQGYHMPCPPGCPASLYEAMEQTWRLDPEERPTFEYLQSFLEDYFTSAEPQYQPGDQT
T3 sequence (P09619 33-1106): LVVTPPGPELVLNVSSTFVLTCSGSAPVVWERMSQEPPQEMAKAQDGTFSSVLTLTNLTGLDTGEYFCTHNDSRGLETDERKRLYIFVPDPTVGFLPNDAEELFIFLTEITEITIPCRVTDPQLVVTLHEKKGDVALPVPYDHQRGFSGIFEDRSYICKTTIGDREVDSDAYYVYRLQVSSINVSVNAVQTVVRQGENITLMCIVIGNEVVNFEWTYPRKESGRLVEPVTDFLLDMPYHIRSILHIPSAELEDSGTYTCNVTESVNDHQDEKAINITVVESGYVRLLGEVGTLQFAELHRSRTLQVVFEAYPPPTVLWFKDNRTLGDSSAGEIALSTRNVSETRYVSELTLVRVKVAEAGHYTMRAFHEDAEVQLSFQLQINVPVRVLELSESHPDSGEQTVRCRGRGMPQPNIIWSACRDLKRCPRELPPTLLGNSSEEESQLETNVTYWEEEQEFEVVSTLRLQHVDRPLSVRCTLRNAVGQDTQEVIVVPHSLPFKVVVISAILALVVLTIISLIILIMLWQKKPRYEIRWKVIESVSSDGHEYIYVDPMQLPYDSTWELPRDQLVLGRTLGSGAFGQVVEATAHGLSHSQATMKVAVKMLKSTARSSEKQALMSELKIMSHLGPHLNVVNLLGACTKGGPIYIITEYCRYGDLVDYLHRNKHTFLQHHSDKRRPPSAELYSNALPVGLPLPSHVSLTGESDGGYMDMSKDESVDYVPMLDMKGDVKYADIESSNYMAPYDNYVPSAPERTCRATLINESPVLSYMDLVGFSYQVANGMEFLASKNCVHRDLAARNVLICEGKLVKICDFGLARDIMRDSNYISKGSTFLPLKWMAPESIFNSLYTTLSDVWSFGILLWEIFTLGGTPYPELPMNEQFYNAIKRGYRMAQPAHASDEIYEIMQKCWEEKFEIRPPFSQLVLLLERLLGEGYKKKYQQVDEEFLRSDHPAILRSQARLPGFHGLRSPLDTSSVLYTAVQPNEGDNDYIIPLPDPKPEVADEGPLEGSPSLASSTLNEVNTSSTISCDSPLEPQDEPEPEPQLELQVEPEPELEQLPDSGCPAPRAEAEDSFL
T7 sequence (P07948 whole entry): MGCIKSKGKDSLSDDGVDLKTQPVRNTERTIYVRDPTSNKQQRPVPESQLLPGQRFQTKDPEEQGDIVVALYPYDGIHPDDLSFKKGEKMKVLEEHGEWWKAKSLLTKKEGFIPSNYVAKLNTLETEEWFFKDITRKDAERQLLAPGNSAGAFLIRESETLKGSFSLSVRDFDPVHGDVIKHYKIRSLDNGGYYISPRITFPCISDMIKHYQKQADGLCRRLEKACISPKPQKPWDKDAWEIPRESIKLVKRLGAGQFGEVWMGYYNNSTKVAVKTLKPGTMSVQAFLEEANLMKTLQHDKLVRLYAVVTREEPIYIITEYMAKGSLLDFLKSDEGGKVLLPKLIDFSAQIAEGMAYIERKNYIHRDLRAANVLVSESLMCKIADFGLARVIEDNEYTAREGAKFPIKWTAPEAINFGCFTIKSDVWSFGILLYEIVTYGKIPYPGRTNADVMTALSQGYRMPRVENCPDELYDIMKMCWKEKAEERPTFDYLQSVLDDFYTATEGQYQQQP

For `[2H]c1cc(C)c(NC(=O)c2cnc(Nc3cc(N4CCN(CCO)CC4)nc(C)n3)s2)c(Cl)c1` [Compound III], the V in data set [1] (setting [3]) and in data set [1] (setting [4]) was 3 ± 0 L/kg throughout. For the same molecule, the inhibition at 0.01 µM on ARG, at PDGFRα, at PDGFRβ, at FGR, on DDR2 and on HCK was more than 50% throughout. For the same molecule, the inhibition at 0.01 µM on LYNa was more than 50%. Also, the “activity to inhibit kinases” value in data set [2] is “potent activity”.
With `Cc1nc(Nc2ncc(C(=O)Nc3c(C)cccc3Cl)s2)cc(N2CCCC2)n1` [Compound XIV, N-(2-chloro-6-methylphenyl)-2-[[2-methyl-6-(pyrrolidin-1-yl)pyrimidin-4-yl]amino]thiazole-5-carboxamide], the IC50 in the data set with Mino was less than 50 nM; in the data set on SU-DHL-4 it was less than 20 nM.
On to `Cc1nc(Nc2ncc(C(=O)Nc3c(C)cccc3Cl)s2)cc(N2CCN(CCO)CC2)n1` [Dasatinib, reference compound], for which, in data set [1] (PO 5 mg/kg versus intravenous 1 mg/kg, AUCinf dose normalized, Table 3), the “F, percent oral bioavailability” value came out at 3.9±1%. Moreover, the V was determined as 3 ± 0 L/kg in [1] (setting [3]) and 2 ± 0 L/kg in data set [1] (setting [4]).
